Measured values from PubChem BioAssay AID2060507 (Molecular Pharmacology Branch, DTP, NCI, 2025).
Blank lines part the entries; values can stand above or below the molecule they belong to.

Test system: 519858-162-T-J1-PDC complex spheroid viability
Assay: Anticancer human tumor 519858-162-T-J1-PDC patient-derived colon adenocarcinoma cell line growth inhibition [GQUAD]
Details: for IC50: curve of first compound; for viability, T/C: stronger effect = lower value
In short: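 Multi-cell-type spheroids of tumor cells with HUVEC and mesenchymal stem cells, treated with drug combinations. Concentrations descend in half-log steps from near clinical Cmax, or from 10 microM where Cmax is unknown; viability read-out.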

[1] = second compound 0.0316 µM, first compound 0.0316 µM
[2] = second compound 0.0316 µM, first compound 0.1 µM
[3] = second compound 0.0316 µM, first compound 0.316 µM
[4] = second compound 0.0316 µM, first compound 1 µM
[5] = second compound 0.0316 µM, first compound 3.16 µM
[6] = second compound 0.0316 µM, first compound 10 µM
[7] = second compound 0.1 µM, first compound 0.0316 µM
[8] = second compound 0.1 µM, first compound 0.1 µM
[9] = second compound 0.1 µM, first compound 0.316 µM
[10] = second compound 0.1 µM, first compound 1 µM
[11] = second compound 0.1 µM, first compound 3.16 µM
[12] = second compound 0.1 µM, first compound 10 µM
[13] = second compound 0.316 µM, first compound 0.0316 µM
[14] = second compound 0.316 µM, first compound 0.1 µM
[15] = second compound 0.316 µM, first compound 0.316 µM
[16] = second compound 0.316 µM, first compound 1 µM
[17] = second compound 0.316 µM, first compound 3.16 µM
[18] = second compound 0.316 µM, first compound 10 µM
[19] = second compound 1 µM, first compound 0.0316 µM
[20] = second compound 1 µM, first compound 0.1 µM
[21] = second compound 1 µM, first compound 0.316 µM
[22] = second compound 1 µM, first compound 1 µM
[23] = second compound 1 µM, first compound 3.16 µM
[24] = second compound 1 µM, first compound 10 µM
[25] = second compound 3.16 µM, first compound 0.0316 µM
[26] = second compound 3.16 µM, first compound 0.1 µM
[27] = second compound 3.16 µM, first compound 0.316 µM
[28] = second compound 3.16 µM, first compound 1 µM
[29] = second compound 3.16 µM, first compound 3.16 µM
[30] = second compound 3.16 µM, first compound 10 µM
[31] = second compound 10 µM, first compound 0.0316 µM
[32] = second compound 10 µM, first compound 0.1 µM
[33] = second compound 10 µM, first compound 0.316 µM
[34] = second compound 10 µM, first compound 1 µM
[35] = second compound 10 µM, first compound 3.16 µM
[36] = second compound 10 µM, first compound 10 µM
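Note: spheroids exposed to compounds for 7 days.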
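Throughout, for viability, T/C: 100% = DMSO vehicle control viability.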

Compound: CCCS(=O)(=O)Nc1ccc(F)c(C(=O)c2c[nH]c3ncc(-c4ccc(Cl)cc4)cc23)c1F + Cc1[nH]c2ccc(F)cc2c1-c1nc2c3cccnc3c3ncccc3c2[nH]1
IC50 (second compound 0.0316 µM): > 10 µM
IC50 (second compound 0.1 µM): > 10 µM
IC50 (second compound 0.316 µM): > 10 µM
IC50 (second compound 1 µM): > 10 µM
IC50 (second compound 3.16 µM): 7 µM
IC50 (second compound 10 µM): > 10 µM
viability, T/C [1]: 90.7%
viability, T/C [2]: 92%
viability, T/C [3]: 83.7%
viability, T/C [4]: 129%
viability, T/C [5]: 135%
viability, T/C [6]: 101%
viability, T/C [7]: 103%
viability, T/C [8]: 119%
viability, T/C [9]: 97.9%
viability, T/C [10]: 113%
viability, T/C [11]: 87.6%
viability, T/C [12]: 107%
viability, T/C [13]: 101%
viability, T/C [14]: 116%
viability, T/C [15]: 108%
viability, T/C [16]: 75.4%
viability, T/C [17]: 112%
viability, T/C [18]: 119%
viability, T/C [19]: 62.5%
viability, T/C [20]: 74.1%
viability, T/C [21]: 99.3%
viability, T/C [22]: 99.2%
viability, T/C [23]: 115%
viability, T/C [24]: 101%
viability, T/C [25]: 86.3%
viability, T/C [26]: 51.3%
viability, T/C [27]: 81.9%
viability, T/C [28]: 72%
viability, T/C [29]: 86%
viability, T/C [30]: 38.7%
viability, T/C [31]: 79.8%
viability, T/C [32]: 53.7%
viability, T/C [33]: 60.8%
viability, T/C [34]: 89.2%
viability, T/C [35]: 105%
viability, T/C [36]: 109%

Compound: COc1cc(C2c3cc4c(cc3C(OC3OC5COC(C)OC5C(O)C3O)C3COC(=O)C23)OCO4)cc(OC)c1O (stereo not drawn) + Cc1[nH]c2ccc(F)cc2c1-c1nc2c3cccnc3c3ncccc3c2[nH]1
IC50 (second compound 0.0316 µM): > 10 µM
IC50 (second compound 0.1 µM): > 10 µM
IC50 (second compound 0.316 µM): > 10 µM
IC50 (second compound 1 µM): > 10 µM
IC50 (second compound 3.16 µM): > 10 µM
IC50 (second compound 10 µM): > 10 µM
viability, T/C [1]: 114%
viability, T/C [2]: 99.6%
viability, T/C [3]: 93.8%
viability, T/C [4]: 124%
viability, T/C [5]: 98.2%
viability, T/C [6]: 64.6%
viability, T/C [7]: 127%
viability, T/C [8]: 130%
viability, T/C [9]: 93.2%
viability, T/C [10]: 89.8%
viability, T/C [11]: 55.6%
viability, T/C [12]: 60.4%
viability, T/C [13]: 90.6%
viability, T/C [14]: 109%
viability, T/C [15]: 57.4%
viability, T/C [16]: 86.5%
viability, T/C [17]: 86.9%
viability, T/C [18]: 78.4%
viability, T/C [19]: 88.8%
viability, T/C [20]: 75.8%
viability, T/C [21]: 108%
viability, T/C [22]: 75.9%
viability, T/C [23]: 81%
viability, T/C [24]: 71.4%
viability, T/C [25]: 65.9%
viability, T/C [26]: 76.9%
viability, T/C [27]: 66.9%
viability, T/C [28]: 75%
viability, T/C [29]: 58.6%
viability, T/C [30]: 80.3%
viability, T/C [31]: 69.4%
viability, T/C [32]: 63.4%
viability, T/C [33]: 65.8%
viability, T/C [34]: 68.5%
viability, T/C [35]: 74.8%
viability, T/C [36]: 82.7%

Compound: Cc1cccc(N(C)C(=O)C2C(O)CCN2c2nc(C)cc(C(F)(F)F)c2C#N)c1 (stereo not drawn) + CN(C)c1ccc(Nc2c3ccc(NC(=O)CCN4CCCC4)cc3nc3cc(NC(=O)CCN4CCCC4)ccc23)cc1
IC50 (second compound 0.0316 µM): > 10 µM
IC50 (second compound 0.1 µM): > 10 µM
IC50 (second compound 0.316 µM): > 10 µM
IC50 (second compound 1 µM): > 10 µM
IC50 (second compound 3.16 µM): > 10 µM
IC50 (second compound 10 µM): > 10 µM
viability, T/C [1]: 86.1%
viability, T/C [2]: 126%
viability, T/C [3]: 96.4%
viability, T/C [4]: 95.2%
viability, T/C [5]: 91.1%
viability, T/C [6]: 92.9%
viability, T/C [7]: 105%
viability, T/C [8]: 78.6%
viability, T/C [9]: 109%
viability, T/C [10]: 77.2%
viability, T/C [11]: 68.1%
viability, T/C [12]: 83.8%
viability, T/C [13]: 111%
viability, T/C [14]: 87.7%
viability, T/C [15]: 120%
viability, T/C [16]: 61.4%
viability, T/C [17]: 75%
viability, T/C [18]: 85.5%
viability, T/C [19]: 102%
viability, T/C [20]: 84.6%
viability, T/C [21]: 109%
viability, T/C [22]: 73.1%
viability, T/C [23]: 88.8%
viability, T/C [24]: 73.3%
viability, T/C [25]: 63.9%
viability, T/C [26]: 76.2%
viability, T/C [27]: 103%
viability, T/C [28]: 91.8%
viability, T/C [29]: 78.5%
viability, T/C [30]: 62.3%
viability, T/C [31]: 71.2%
viability, T/C [32]: 78.8%
viability, T/C [33]: 57.9%
viability, T/C [34]: 90.7%
viability, T/C [35]: 65.2%
viability, T/C [36]: 88.3%

IC50 (second compound 0.0316 µM): 0.244 µM
IC50 (second compound 0.1 µM): 0.339 µM
IC50 (second compound 0.316 µM): 0.345 µM
IC50 (second compound 1 µM): 0.173 µM
IC50 (second compound 3.16 µM): 0.107 µM
IC50 (second compound 10 µM): < 0.0316 µM
Compound: O=C(NO)c1cnc(N2CCN(S(=O)(=O)c3ccc4ccccc4c3)CC2)nc1 + Cc1cnc(CNC(=O)c2c(=O)c3ccc(N4CCCN(C)CC4)nc3n3c2sc2ccccc23)cn1
viability, T/C [1]: 119%
viability, T/C [2]: 72.2%
viability, T/C [3]: 50.9%
viability, T/C [4]: 13.3%
viability, T/C [5]: 0.34%
viability, T/C [6]: 0.45%
viability, T/C [7]: 81.2%
viability, T/C [8]: 104%
viability, T/C [9]: 53%
viability, T/C [10]: 11.7%
viability, T/C [11]: 1.16%
viability, T/C [12]: 1.51%
viability, T/C [13]: 92%
viability, T/C [14]: 85.8%
viability, T/C [15]: 53.8%
viability, T/C [16]: 8.35%
viability, T/C [17]: 5.71%
viability, T/C [18]: 1.25%
viability, T/C [19]: 88.7%
viability, T/C [20]: 66.8%
viability, T/C [21]: 31.8%
viability, T/C [22]: 6.88%
viability, T/C [23]: 1.42%
viability, T/C [24]: 0.68%
viability, T/C [25]: 68.2%
viability, T/C [26]: 45.7%
viability, T/C [27]: 37.1%
viability, T/C [28]: 5.54%
viability, T/C [29]: 3.32%
viability, T/C [30]: 1.98%
viability, T/C [31]: 42.8%
viability, T/C [32]: 44.6%
viability, T/C [33]: 26.1%
viability, T/C [34]: 5.86%
viability, T/C [35]: 3.74%
viability, T/C [36]: 2.11%
